Experimental data from patent publication US11684614B2, “Formulations of hydroxypyridonate actinide/lanthanide decorporation agents” (priority 2017, dated 2023).
“And” between values parts separate entries of the source, which are not always exact repeats. Equal values may be shown once.

Assay: Repeated-treatment efficacy for removing an intravenous dose of 238Pu (excretion, tissue retention, clinical observations), female and male arms;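 for % Recovered Dose ART: abdominal tissue remainder incl GI tract reproductive organs spleen bladder and fat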
Format: in vivo, Swiss-Webster mice
Details: listed as 3,4,3-LI(1,2-HOPO); for % Recovered Dose Kidney / % Recovered Dose Liver / % Recovered Dose SKEL / % Recovered Dose SOFT / % Recovered Dose Total Feces / % Recovered Dose ART / % Recovered Dose Combined Body / % Recovered Dose Combined Excreta / % Recovered Dose Total Urine / % Recovered Dose GI Tract / % Recovered Dose Soft Tissue / % Recovered Dose Total Bone: male animals
Protocol: The objective of this study was to characterize the efficacy of 3,4,3-L1(1,2-HOPO) at enhancing elimination from an internal plutonium burden in female and male Swiss-Webster mice administered a soluble citrate complex of ^238Pu and treated multiple times, starting at 24 hours after the exposure. Efficacy was evaluated by comparing the tissue contents, urinary and fecal excretions of ^238Pu in treated animals versus untreated animals.
The medical countermeasure 3,4,3-L1(1,2-HOPO) was administered parenterally (ip) or orally (po) via consecutive injections or gavages (six daily or twelve twice daily) starting at 24 hours post contamination at the following four selected doses: 30 μmol/kg ip, 150 μmol/kg po, 300 μmol/kg po, and 600 μmol/kg po (equivalent to respective approximate human doses range of […], using the accepted conversion system of mouse doses into human equivalent doses—HED—based on body surface area). Oral doses also included the permeability enhancer selected during formulation development work.
• Challenge isotope: ^238Pu • Challenge dose: 25 nCi (i.e., approximately 0.8 μCi/kg) • Route of contamination: Intravenous (iv) tail-vein • Route of treatment: Intraperitoneal Injection (ip) or Oral (po) • Frequency of treatment: Multiple (once- or twice-daily for 6 days) doses, starting 24 hr postcontamination • Treatment dose calculation: Dose calculations (mg/kg or μmol/kg) for the decorporation agent were based on the individual body weight measured after contamination. • Study Duration: 11 days, in-life
c. […] Test article and control dose formulations were prepared within 1 day of dose administration, by weighing out the appropriate amount of test article, dispersing in vehicle. For ip solutions, the test article was used alone, while for oral suspensions, a mixture of test article and excipient (90:10, w:w) was used. The pH was adjusted to 7.0-7.4 for ip administration and 5.0-5.5 for oral administration with sterile NaOH. Dose formulations were prepared at room temperature and filter-sterilized. • Storage: 2-8° C.; refrigerated; protected from light. • Characterization: The concentration of each test article formulation was verified by high-performance liquid chromatography-mass spectrometry. • Test Article Handling: Test, reference, and control article formulations were handled with the use of eye protection, gloves, and a protective laboratory coat. • Correct Dose Assurance: The test article was weighed with calibrated balances. The administration of each dose formulation was properly documented, and the amount administered to each animal recorded.
e. Experimental Procedures (In-Life Evaluations and Euthanasia) • Contamination: Single administration by intravenous (iv) tail-vein injection (0.2 mL injection volume) under isoflurane anesthesia. Three standard 0.2 mL injections were performed into polyethylene bottles and pre-loaded with aliquots of concentrated nitric acid on each injection day. Six female and six male mice were culled for necropsy 1 hr post-contamination and were used as standards. A11 standards were processed and counted together with the final samples to allow verification of the contamination dose. • Dose Administration: Single administration by intraperitoneal injection (ip) or oral gavage (po) under isoflurane anesthesia. • Mortality/Morbidity: Assessed at least once daily. • Clinical Observations: Recorded once daily (4 hr post-dose on day of treatment), or more often as clinical signs warranted. […]

[1] = Day-11 necropsy, animal group I
[2] = Day-11 necropsy, animal group L
[3] = Day-11 necropsy, animal group M
[4] = male arm table, Day 11 necropsy, animal group I
[5] = male arm table, Day 11 necropsy, animal group L
[6] = male arm table, Day 11 necropsy, animal group M

## O=C(NCCCN(CCCCN(CCCNC(=O)c1cccc(=O)n1O)C(=O)c1cccc(=O)n1O)C(=O)c1cccc(=O)n1O)c1cccc(=O)n1O [3,4,3-L1(1,2-HOPO)]
Day-7 necropsy, animal group C
  % Recovered Dose Kidney: 0.22% and 0.15% and 0.21% and 0.17%
  % Recovered Dose Liver: 15.72% and 12.80% and 16.24% and 16.85%
  % Recovered Dose SKEL: 24.75% and 21.49% and 23.68% and 17.13%
  % Recovered Dose SOFT: 2.28% and 2.12% and 3.24% and 2.82%
  % Recovered Dose Total Feces: 34.40% and 32.67% and 50.44% and 35.35%
Day-7 necropsy, animal group E
  % Recovered Dose ART: 1.02% and 1.34% and 1.21% and 1.33%
  % Recovered Dose Combined Body: 30.49% and 40.14% and 34.97% and 37.95%
  % Recovered Dose Combined Excreta: 69.51% and 59.86% and 65.03% and 62.05%
  % Recovered Dose Kidney: 0.14% and 0.21% and 0.13% and 0.20%
  % Recovered Dose Liver: 9.72% and 15.67% and 11.76% and 13.58%
  % Recovered Dose SKEL: 17.72% and 20.95% and 20.71% and 20.84%
  % Recovered Dose SOFT: 1.89% and 1.96% and 1.16% and 2.00%
  % Recovered Dose Total Feces: 40.90% and 40.04% and 39.60% and 39.91%
  % Recovered Dose Total Urine: 28.61% and 19.82% and 25.43% and 22.13%
Day-7 necropsy, animal group F
  % Recovered Dose ART: 1.03% and 1.92% and 2.25% and 1.33%
  % Recovered Dose Combined Body: 30.37% and 39.36% and 36.59% and 31.04%
  % Recovered Dose Combined Excreta: 69.63% and 60.64% and 63.41% and 68.96%
  % Recovered Dose Kidney: 0.17% and 0.21% and 0.42%
  % Recovered Dose Liver: 7.14% and 17.14% and 15.20% and 10.27%
  % Recovered Dose SKEL: 20.00% and 18.02% and 16.63% and 16.58%
  % Recovered Dose SOFT: 2.03% and 2.08% and 2.10% and 2.66%
  % Recovered Dose Total Feces: 42.75% and 36.05% and 44.44% and 38.86%
  % Recovered Dose Total Urine: 26.88% and 24.59% and 18.97% and 30.09%
[1]
  % Recovered Dose Combined Body: 15.90% and 20.53% and 19.46% and 22.16% and 16.51% and 22.02% and 21.03% and 23.25%
  % Recovered Dose Combined Excreta: 84.10% and 79.47% and 80.54% and 77.84% and 83.49% and 77.98% and 78.97% and 76.75%
  % Recovered Dose GI Tract: 0.43% and 0.47% and 0.44% and 0.49% and 0.64% and 0.58% and 0.71%
  % Recovered Dose Kidney: 0.08% and 0.11% and 0.10% and 0.14% and 0.13% and 0.16%
  % Recovered Dose Liver: 2.60% and 1.91% and 2.22% and 2.29% and 3.02% and 2.09% and 2.92% and 2.34%
  % Recovered Dose Soft Tissue: 1.04% and 0.98% and 0.83% and 1.42% and 1.37% and 1.22% and 1.20%
  % Recovered Dose Total Bone: 11.74% and 17.07% and 15.87% and 17.81% and 11.38% and 18.21% and 16.06% and 19.05%
  % Recovered Dose Total Feces: 54.04% and 60.47% and 51.78% and 38.48% and 49.18% and 43.78% and 44.59% and 43.58%
[2]
  % Recovered Dose Combined Body: 38.48% and 43.87% and 28.88% and 28.44% and 32.53% and 32.57% and 26.76% and 36.08%
  % Recovered Dose Combined Excreta: 61.52% and 56.13% and 71.12% and 71.56% and 64.47% and 67.43% and 73.24% and 63.92%
  % Recovered Dose GI Tract: 0.99% and 1.04% and 1.13% and 1.03% and 1.21% and 0.97% and 0.90% and 0.93%
  % Recovered Dose Kidney: 0.10% and 0.15% and 0.19% and 0.14%
  % Recovered Dose Soft Tissue: 2.91% and 2.09% and 2.06% and 2.29% and 2.57% and 2.02% and 1.97% and 1.69%
  % Recovered Dose Total Bone: 25.77% and 24.60% and 16.37% and 19.43% and 22.08% and 18.56% and 15.85% and 25.23%
  % Recovered Dose Total Feces: 41.70% and 35.40% and 43.87% and 46.74% and 38.04% and 37.30% and 46.07% and 33.53%
  % Recovered Dose Total Urine: 19.82% and 20.73% and 27.24% and 24.82% and 26.43% and 30.12% and 27.17% and 30.39%
[3]
  % Recovered Dose Combined Body: 20.04% and 21.39% and 28.64% and 34.45% and 33.00% and 30.60% and 25.58% and 27.62%
  % Recovered Dose Combined Excreta: 79.96% and 78.61% and 71.36% and 65.55% and 67.00% and 69.40% and 74.42% and 72.38%
  % Recovered Dose GI Tract: 0.61% and 0.50% and 0.89% and 0.48% and 0.99% and 1.00% and 0.73% and 0.76%
  % Recovered Dose Kidney: 0.08% and 0.17% and 0.28% and 0.16% and 0.25% and 0.24% and 0.20% and 0.13%
  % Recovered Dose Liver: 3.86% and 3.49% and 8.37% and 6.17% and 12.45% and 9.96% and 3.83% and 6.08%
  % Recovered Dose Soft Tissue: 1.50% and 1.55% and 1.52% and 2.24% and 2.53% and 2.16% and 2.01% and 1.95%
  % Recovered Dose Total Bone: 13.99% and 15.68% and 17.58% and 25.41% and 16.78% and 17.24% and 18.80% and 18.71%
  % Recovered Dose Total Feces: 53.86% and 46.68% and 46.45% and 35.88% and 40.81% and 59.45% and 36.72% and 39.43%
[4]
  % Recovered Dose Urine per Day, Day 2: 3.96% and 5.51% and 4.41% and 4.63% and 4.05% and 5.30% and 3.86% and 5.05%
  % Recovered Dose Urine per Day, Day 3: 1.65% and 1.23% and 3.48% and 2.00% and 1.41% and 1.46% and 1.93%
  % Recovered Dose Urine per Day, Day 4: 0.77% and 0.85% and 0.98% and 1.08% and 0.65% and 0.92% and 0.89% and 0.93%
  % Recovered Dose Urine per Day, Day 5: 0.94% and 0.87% and 0.59% and 0.63% and 0.79% and 0.76% and 0.28% and 1.05%
  % Recovered Dose Urine per Day, Day 6: 0.65% and 0.41% and 0.44% and 0.32% and 0.35% and 0.48% and 0.51% and 0.55%
  % Recovered Dose Urine per Day, Day 7: 0.87% and 1.16% and 0.64% and 0.59% and 0.75% and 0.99% and 1.27%
  % Recovered Dose Urine per Day, Day 8: 0.32% and 0.70% and 0.71% and 0.52% and 0.77% and 0.79% and 0.51%
  % Recovered Dose Urine per Day, Day 9: 0.20% and 0.51% and 0.73% and 0.48% and 0.39% and 0.60% and 0.63%
  % Recovered Dose Urine per Day, Day 10: 0.58% and 0.74% and 0.92% and 0.42% and 0.40% and 0.38% and 0.41%
  % Recovered Dose Urine per Day, Day 11: 0.39% and 0.44% and 0.55% and 0.31% and 0.43% and 0.00% and 0.71%
[5]
  % Recovered Dose Urine per Day, Day 1: 12.59% and 16.03% and 21.48% and 17.40% and 21.11% and 22.45% and 21.35% and 20.51%
  % Recovered Dose Urine per Day, Day 2: 2.90% and 1.60% and 1.70% and 2.41% and 1.15% and 2.95% and 2.14% and 3.00%
  % Recovered Dose Urine per Day, Day 3: 1.04% and 0.84% and 1.21% and 0.62% and 1.08% and 1.06% and 0.54% and 1.49%
  % Recovered Dose Urine per Day, Day 4: 0.50% and 0.38% and 0.59% and 0.77% and 0.45% and 0.81% and 0.67% and 1.28%
  % Recovered Dose Urine per Day, Day 5: 0.64% and 0.28% and 0.60% and 0.52% and 0.67% and 0.50% and 0.69%
  % Recovered Dose Urine per Day, Day 6: 0.60% and 0.06% and 0.37% and 0.49% and 0.33% and 0.48% and 0.43%
  % Recovered Dose Urine per Day, Day 7: 0.61% and 0.22% and 0.72% and 1.23% and 0.46% and 0.44% and 0.51% and 0.75%
  % Recovered Dose Urine per Day, Day 8: 0.30% and 0.16% and 0.05% and 0.55% and 0.60% and 0.62%
  % Recovered Dose Urine per Day, Day 9: 0.21% and 0.30% and 0.20% and 0.22% and 0.55% and 0.27% and 0.25% and 0.67%
  % Recovered Dose Urine per Day, Day 10: 0.24% and 0.45% and 0.12% and 0.20% and 0.21% and 0.30% and 0.34% and 0.63%
  % Recovered Dose Urine per Day, Day 11: 0.20% and 0.41% and 0.40% and 0.14% and 0.18% and 0.34% and 0.31%
[6]
  % Recovered Dose Urine per Day, Day 2: 2.27% and 2.99% and 2.82% and 2.73% and 2.07% and 4.97% and 3.05%
  % Recovered Dose Urine per Day, Day 3: 0.81% and 1.49% and 1.40% and 1.64% and 1.14% and 1.43% and 1.07% and 1.00%
  % Recovered Dose Urine per Day, Day 4: 0.47% and 0.64% and 0.77% and 0.68% and 0.62% and 0.31% and 0.58% and 0.72%
